# Test results reported in ChEMBL document CHEMBL1127901, “Conformationally constrained analogues of dag .8. Changes in PK-C binding affinity produced by isosteric groups of the 3-O-acyl function in 2-deoxy-L-ribonolactones” (Bioorg Med Chem Lett, 1994).
# Molecular target: Protein kinase C alpha type (Rattus norvegicus, UniProt P05696)
# Assay: Inhibition of [3H]PDBU binding to Protein kinase C alpha
row,SMILES,Ki [nM]
1,CCCCCCCCCCCCCC(=O)O[C@@H]1CC(=O)O[C@H]1CO,1500
2,CCCCCCCCCCCCCC(=O)O[C@@H]1CC(=O)O[C@H]1CCO,880
3,CCCCCCCCCCCCCCOC(=O)C[C@@H]1CC(=O)O[C@H]1CCO,18600

# More lines, now with the values ahead:
row,Ki [nM],SMILES
1,3100,CCCCCCCCCCCCCC(=O)OC[C@@H]1CC(=O)O[C@H]1CO
2,1470,CCCCCCCCCCCCCCOC(=O)C[C@@H]1CC(=O)O[C@H]1CO

# Molecular target: Protein kinase C (PKC)
# Assay: Inhibition of [3H]PDBU binding to protein kinase C mixture
# Format: protein assay, Rattus norvegicus
row,SMILES,Ki [nM]
1,CCCCCCCCCCCCCC(=O)O[C@@H]1CC(=O)O[C@H]1CO,2500

# Molecular target: Protein kinase C (PKC)
# Assay: Inhibition of [3H]-PDBU binding to protein kinase C mixture
# Format: protein assay, Rattus norvegicus
row,SMILES,Ki [nM]
1,CCCCCCCCCCCCCCC(=O)[C@@H]1CC(=O)O[C@H]1CO,50750
2,CCCCCCCCCCCCCCOC(=O)[C@@H]1CC(=O)O[C@H]1CO,8070
3,CCCCCCCCCCCCCCO[C@@H]1CC(=O)O[C@H]1CO,3310
